The subject of this test is Nrf2. Briefly: Evaluation of Nrf2 activation ability (Nrf2d-LacZ / Keap1 HEK293 reporter, Beta-Glo luminescence). In kind it is cell-based, human. Particulars: rated A/B/C, Pharmacological Test Example 1. As to the method: HEK293 cells constantly expressing Nrf2d-LacZ (human Nrf2 degron region fused to LacZ; Hirotsu et al, Genes to Cell, Vol. 16, pp. 406-415 (2011)) and human Keap1 were seeded 7,000 cells/27 μl/well on 384-well plates (Corning 384 Well Flat Clear Bottom White Polystyrene TC-Treated Microplates, Cat. #3707), and cultured overnight at 5% CO2, 37° C. in DMEM medium containing 10% FBS, 100 U/mL penicillin and 100 μg/mL streptomycin. 3 μL/well of a 0.1% DMSO solution of the compound of the invention was added to the cells, which were then cultured for 3 hours at 5% CO2, 37° C. Beta-Glo® reagent (Promega, Beta-Glo Assay System, Cat. #E4740) was added 15 μL/well and incubated for 1 hour at room temperature, and luminescence intensity was measured with a luminometer. Using CDDO-Im as a standard, Nrf2 activation ability was calculated given 100% as the luminescence under stimulus with 100 nM CDDO-Im.
As to `CN(C(=O)N1CCC(c2ccc3c(cnn3-c3cc(O)n[s+]3[O-])c2)CC1)c1ccccc1` (stereo not drawn) [Example 170], the EC50 was in the range of 1000 to 5000 nM.

As to `Cn1cc(-c2ccc3c(cnn3-c3cc(O)n[s+]3[O-])c2)ccc1=O` (stereo not drawn) [Example 171], the EC50 lay within 5000 to 10000 nM. The same measure for `COCCN1CCOc2cc(-c3ccc4c(cnn4-c4cc(O)n[s+]4[O-])c3)cnc21` (stereo not drawn) [Example 172]: < 1000 nM. The same measure for `COc1cc(-c2ccc3c(cnn3-c3cc(O)n[s+]3[O-])c2)cnc1N(C)C` (stereo not drawn) [Example 173]: < 1000 nM. With `COc1cc(-c2cnc3c(c2)OCCN3C)c2cnn(-c3cc(O)n[s+]3[O-])c2c1` (stereo not drawn) [Example 174], the EC50 was 1000 to 5000 nM. Turning to `COc1cc(-c2ccc(N3CCCC3)nc2)c2cnn(-c3cc(O)n[s+]3[O-])c2c1` (stereo not drawn) [Example 175], the EC50 is < 1000 nM. The value for `COc1cc(-c2ccnc(N3CCCCC3)c2)c2cnn(-c3cc(O)n[s+]3[O-])c2c1` (stereo not drawn) [Example 176] was 1000 to 5000 nM; that for `COc1cc(Br)cc2c1cnn2-c1cc(O)n[s+]1[O-]` (stereo not drawn) [Example 177] was < 1000 nM; that for `CN1CCOc2ccc(-c3ccc4c(cnn4-c4cc(O)n[s+]4[O-])c3)nc21` (stereo not drawn) [Example 178] was < 1000 nM. The same measure for `CN1CCOc2nc(-c3ccc4c(cnn4-c4cc(O)n[s+]4[O-])c3)ccc21` (stereo not drawn) [Example 179]: < 1000 nM; for `COc1cc(-c2ccc(N3CCCCC3)nc2)c2cnn(-c3cc(O)n[s+]3[O-])c2c1` (stereo not drawn) [Example 180]: < 1000 nM. The same measure for `COc1cc(-c2ccnc(N3CCCC3)c2)c2cnn(-c3cc(O)n[s+]3[O-])c2c1` (stereo not drawn) [Example 181]: 1000 to 5000 nM; for `[O-][s+]1nc(O)cc1-n1ncc2cc(-c3ccc(N4CCC(F)(F)C4)nc3)ccc21` (stereo not drawn) [Example 182]: < 1000 nM; for `COc1cc(C2CC2)c2cnn(-c3cc(O)n[s+]3[O-])c2c1` (stereo not drawn) [Example 183]: 1000 to 5000 nM. Turning to `CN1CCOc2cc(-c3ccc4c(cnn4-c4cc(O)n[s+]4[O-])c3)c(C#N)nc21` (stereo not drawn) [Example 184], the half-maximal effective concentration (EC50) was < 1000 nM.

In the case of `Cc1nc2c(cc1-c1ccc3c(cnn3-c3cc(O)n[s+]3[O-])c1)OCCN2C` (stereo not drawn) [Example 185], the EC50 was < 1000 nM. The value for `O=C1CCCN1c1ccc(-c2ccc3c(cnn3-c3cc(O)n[s+]3[O-])c2)cn1` (stereo not drawn) [Example 186] was < 1000 nM.

Turning to `CN1C(=O)C(C)(C)Oc2cc(-c3ccc4c(cnn4-c4cc(O)n[s+]4[O-])c3)cnc21` (stereo not drawn) [Example 187], the EC50 is < 1000 nM. On to `CN1CC(C)(C)Oc2cc(-c3ccc4c(cnn4-c4cc(O)n[s+]4[O-])c3)cnc21` (stereo not drawn) [Example 188], for which the EC50 was < 1000 nM. Take `CC1(C)CNc2ncc(-c3ccc4c(cnn4-c4cc(O)n[s+]4[O-])c3)cc2O1` (stereo not drawn) [Example 189]: the EC50 is < 1000 nM. Turning to `[O-][s+]1nc(O)cc1-n1ncc2cc(-c3cnc4c(c3)OCCCN4)ccc21` (stereo not drawn) [Example 190], the EC50 was < 1000 nM.

The compound `COc1cccc2c1cnn2-c1cc(O)n[s+]1[O-]` (stereo not drawn) [Example 191] returned an EC50 of 1000 to 5000 nM. Regarding `COc1cc(-c2cnc3c(c2)OCCN3C)cc2c1cnn2-c1cc(O)n[s+]1[O-]` (stereo not drawn) [Example 192], the EC50 is < 1000 nM. The same measure for `COc1cc(-c2ccc(N3CCCC3)nc2)cc2c1cnn2-c1cc(O)n[s+]1[O-]` (stereo not drawn) [Example 193]: < 1000 nM; for `COc1cc(-c2ccnc(N3CCCC3)c2)cc2c1cnn2-c1cc(O)n[s+]1[O-]` (stereo not drawn) [Example 194]: < 1000 nM. `COc1cc(-c2cncc(C)c2)cc2c1cnn2-c1cc(O)n[s+]1[O-]` (stereo not drawn) [Example 195] returned an EC50 of 1000 to 5000 nM. The value for `COc1cc(C)c2cnn(-c3cc(O)n[s+]3[O-])c2c1` (stereo not drawn) [Example 196] was 1000 to 5000 nM; that for `CN1C(=O)COc2cc(-c3ccc4c(cnn4-c4cc(O)n[s+]4[O-])c3)cnc21` (stereo not drawn) [Example 197] was < 1000 nM; that for `COCC1CCCN1c1ccc(-c2ccc3c(cnn3-c3cc(O)n[s+]3[O-])c2)cn1` (stereo not drawn) [Example 198] was < 1000 nM. The value for `COc1cc(-c2cccnc2)cc2c1cnn2-c1cc(O)n[s+]1[O-]` (stereo not drawn) [Example 199] was 1000 to 5000 nM; that for `COc1cc(-c2ccncc2)cc2c1cnn2-c1cc(O)n[s+]1[O-]` (stereo not drawn) [Example 200] was 1000 to 5000 nM.

`COc1cc(-c2cc(OC)c3cnn(-c4cc(O)n[s+]4[O-])c3c2)ccn1` (stereo not drawn) [Example 201]: the EC50 is < 1000 nM. In the case of `COc1cc(-c2ccc(C3CC3)nc2)cc2c1cnn2-c1cc(O)n[s+]1[O-]` (stereo not drawn) [Example 203], the EC50 was < 1000 nM. The same measure for `CN1CCOc2cc(-c3ccc4c(cnn4-c4cc(O)n[s+]4[O-])c3)c(C(F)F)nc21` (stereo not drawn) [Example 204]: < 1000 nM. The value for `CN1CCCCOc2cc(-c3ccc4c(cnn4-c4cc(O)n[s+]4[O-])c3)cnc21` (stereo not drawn) [Example 205] was < 1000 nM.

Regarding `[O-][s+]1nc(O)cc1-n1ncc2cc(-c3cnc4c(c3)OCCCCN4)ccc21` (stereo not drawn) [Example 206], the EC50 is < 1000 nM. In the case of `COc1c(Br)ccc2c1cnn2-c1cc(O)n[s+]1[O-]` (stereo not drawn) [Example 207], the EC50 was < 1000 nM. The value for `CN1CCCOc2cc(-c3ccc4c(cnn4-c4cc(O)n[s+]4[O-])c3)cnc21` (stereo not drawn) [Example 209] was < 1000 nM; that for `CN1CCOc2nc(-c3ccc4c(cnn4-c4cc(O)n[s+]4[O-])c3)cnc21` (stereo not drawn) [Example 210] was < 1000 nM; that for `COc1c(-c2cnc3c(c2)OCCN3C)ccc2c1cnn2-c1cc(O)n[s+]1[O-]` (stereo not drawn) [Example 211] was < 1000 nM. The value for `[O-][s+]1nc(O)cc1-n1ncc2cc(-c3cnc4c(c3)OCC3CCCN43)ccc21` (stereo not drawn) [Example 212] was < 1000 nM; that for `CN1c2ncc(-c3ccc4c(cnn4-c4cc(O)n[s+]4[O-])c3)cc2OCC1(C)C` (stereo not drawn) [Example 213] was < 1000 nM. As to `CN1CCOc2nc(-c3ccc4c(cnn4-c4cc(O)n[s+]4[O-])c3)ncc21` (stereo not drawn) [Example 215], the EC50 was < 1000 nM.

`CN1CCOc2cc(-c3ccc4c(c3)c(C3CC3)nn4-c3cc(O)n[s+]3[O-])cnc21` (stereo not drawn) [Example 216] came in with an EC50 of 1000 to 5000 nM. The same measure for `CC1(C)COc2cc(-c3ccc4c(cnn4-c4cc(O)n[s+]4[O-])c3)cnc2N1` (stereo not drawn) [Example 217]: < 1000 nM. Turning to `CN1C(=O)COc2nc(-c3ccc4c(cnn4-c4cc(O)n[s+]4[O-])c3)ncc21` (stereo not drawn) [Example 218], the EC50 lay within 1000 to 5000 nM. The value for `[O-][s+]1nc(O)cc1-n1ncc2cc(-c3cc4c(cn3)NCCO4)ccc21` (stereo not drawn) [Example 219] was < 1000 nM; that for `[O-][s+]1nc(O)cc1-n1ncc2cc(-c3cnc4c(c3)OCCO4)ccc21` (stereo not drawn) [Example 220] was < 1000 nM.

As for `CN1CCOc2cc(-c3ccc4c(c3)c(C#N)nn4-c3cc(O)n[s+]3[O-])cnc21` (stereo not drawn) [Example 221], the EC50 lay in the range of 1000 to 5000 nM.

On to `CN1CCOc2cc(-c3ccc4c(cnn4-c4cc(O)n[s+]4[O-])c3)ncc21` (stereo not drawn) [Example 222], for which the EC50 is < 1000 nM. The compound `COc1nn(-c2cc(O)n[s+]2[O-])c2ccc(-c3cnc4c(c3)OCCN4C)cc12` (stereo not drawn) [Example 223] had an EC50 of 1000 to 5000 nM. Regarding `Cn1nc(-c2ccc3c(cnn3-c3cc(O)n[s+]3[O-])c2)c2ccccc21` (stereo not drawn) [Example 224], the EC50 was < 1000 nM. As to `[O-][s+]1nc(O)cc1-n1ncc2cc(-c3cnn4cccnc34)ccc21` (stereo not drawn) [Example 225], the EC50 is < 1000 nM. The same measure for `Cn1ccc(-c2ccc3c(cnn3-c3cc(O)n[s+]3[O-])c2)n1` (stereo not drawn) [Example 226]: < 1000 nM.

A word on the EC50: it is the concentration giving half of the maximal effect.

The values are drawn from US10201531B2, “Indazolyl-oxo-isothiazole compounds” (MOCHIDA PHARMACEUTICAL CO., LTD., priority 2015, dated 2019).
